Where “and” joins values, the source holds several entries; their conditions need not be identical. Equal values may be shown once.
Target: T1, SV2A (Macaca fascicularis, UniProt Q4R4X3)
T1 construct: The current study evaluates [^18F]UCB-H pharmacokinetics in healthy NHPs; from tissue; host or cells: brain of living healthy cynomolgus monkeys (in vivo PET)
Assay: Brain PET kinetic modelling (1TCM, 2TCM, 2TCM-c, Logan), test-retest
Type: in vivo, cynomolgus monkeys (Macaca fascicularis)
Protocol: All four non-human primates (NHP) underwent a 2-h (2 h) test and retest PET scan; two NHP underwent an additional 4-h (4 h) retest PET scan. Three NHP underwent one 4-h (4 h) displacement PET scan. Arterial blood sampling was performed during test and retest scans with PET imaging spaced by at least 3 weeks between each scan. To this end, the femoral artery opposite to the saphenous vein used for radioligand injection was cannulated. For the 2-h (2 h) scans, we collected in total 28 blood samples of 1 mL: 16 samples during the first 5 min followed by […] every 5 min and […] every 10 min. For the 4 h scans, we collected an additional 6 samples every 20 min during the last two hours (34 samples in total). Larger samples (2 – 3 mL) were collected at 5, 15, 30, 60, 90, 120 min (2 h) and at 180, 240 min (4 h) for metabolite analysis. Displacement of [^18F]UCB-H was done by intravenous (IV) administration 90 min after [^18F]UCB-H injection of a bolus of 30 mg/kg LEV, or of 80 µg/kg (≈250 nmol/kg) or 5 mg/kg (≈15 µmol/kg) of cold [^19F]-UCB-H. Full experimental design of all NHP is outlined in Additional file 1: Table 1.
PET imaging was performed on the microPET FOCUS220 (Siemens) under standard anesthesia and monitoring procedures. Data acquisition started with the IV bolus injection of [^18F]UCB-H (32.9 ± 1.0 MBq/kg, 0.35 ± 0.07 µg/kg). Dynamic PET images were reconstructed using standard OSEM-2D algorithms while correcting for radioactive decay, scatter, attenuation and detectors inhomogeneity, which were measured prior to PET scanning using respectively ^57Co and ^68Ge external sources.
PET image analysis was performed using PMOD software version 3.8 (PMOD Technologies Ltd., Zurich, Suisse). After individual co-registration of PET-MR images, a cynomolgus atlas published by Ballanger and coworkers was normalized to PET images to extract time activity curves in different brain regions. Volumes of interest (VOI) were cerebral white matter (16.7 cm^3), striatum (0.24 cm^3), thalamus (0.89 cm^3), cerebellum (3.83 cm^3), frontal—(2.50 cm^3), parietal—(5.35 cm^3), and temporal (8.22 cm^3) cortex, and whole brain (72.2 cm^3) as a composite region of all regions in the atlas. [^18F]UCB-H pharmacokinetics were evaluated by analyzing the time activity curves of the test- and retest scans using 1- and 2-tissue compartment models (unconstrained and constrained with global K1/k2 coupled fit across all regions, further referred to as 2TCM and 2TCM-c), and Logan graphical analysis with a fixed t* at 60 min [33] using the arterial plasma input function corrected for radio-metabolites to derive the volume of distribution in each region. Percentage standard error (%SE) was estimated from the theoretical parameter covariance matrix. Only reliable estimates (%SE less than 25%) were included in the current analyses. For the three drug studies, percent displacement of the total activity in the whole brain was estimated relative to an average baseline constructed from the two 4 h baseline studies. Briefly, Standardized Uptake Value (SUV) time activity curves (TACs) were calculated for the two baseline and the three displacement studies. Then, each curve was normalized to the SUV at t = 90 min, corresponding to the timeframe immediately before the administration of the drugs in the displacement studies. Baseline curves were averaged and the percent displacement of total activity was calculated as (baseline-displacement)/baseline at a given time post drug administration (see “Results”).
Statistical analysis was performed using R software (version 3.3.1.). Plasma, intact parent fraction and time activity curves were statistically compared between subjects using a one-factor variance analysis. Absolute Test–Retest variability (aTRV) of PET quantification parameters was calculated as ABS(test—retest) / AVERAGE(test, retest). […]

[1] = White Matter, Retest, individual NHP
[2] = White Matter, Test, individual NHP

T1 sequence (Q4R4X3 whole entry): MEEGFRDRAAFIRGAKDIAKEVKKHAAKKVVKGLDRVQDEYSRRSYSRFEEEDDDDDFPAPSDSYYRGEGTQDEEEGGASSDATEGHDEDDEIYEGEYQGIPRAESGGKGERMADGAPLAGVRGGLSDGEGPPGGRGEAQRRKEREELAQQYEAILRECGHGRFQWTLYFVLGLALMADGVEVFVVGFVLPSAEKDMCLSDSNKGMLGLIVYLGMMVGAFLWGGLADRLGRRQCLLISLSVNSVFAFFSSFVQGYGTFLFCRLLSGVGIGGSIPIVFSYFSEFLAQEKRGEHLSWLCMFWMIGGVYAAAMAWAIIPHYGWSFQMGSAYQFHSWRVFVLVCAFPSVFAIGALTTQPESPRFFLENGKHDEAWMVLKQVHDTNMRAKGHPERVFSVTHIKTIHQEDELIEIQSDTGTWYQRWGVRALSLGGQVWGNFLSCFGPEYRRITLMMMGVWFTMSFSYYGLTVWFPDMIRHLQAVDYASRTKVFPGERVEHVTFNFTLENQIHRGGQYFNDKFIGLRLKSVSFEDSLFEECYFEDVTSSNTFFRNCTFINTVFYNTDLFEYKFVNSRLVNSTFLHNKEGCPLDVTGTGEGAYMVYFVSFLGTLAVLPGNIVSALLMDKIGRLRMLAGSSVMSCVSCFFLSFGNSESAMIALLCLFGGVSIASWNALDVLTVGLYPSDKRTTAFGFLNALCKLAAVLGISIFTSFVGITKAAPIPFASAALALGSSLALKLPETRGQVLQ

Compound: O=C1C[C@H](c2cc(F)c(F)c(F)c2)CN1Cc1ccncc1[18F] [[^18F]UCB-H]
- k3/k4 (2TCM-c) (Thalamus, Retest, individual NHP): 0.64 and 2.00 and 0.90 and 0.33
- VT (1TCM) (Thalamus, Retest, mean): 13.4 mL/cm^3
- VT (2TCM) (Thalamus, Retest, mean): 13.0 mL/cm^3
- VT (2TCM-c) (Thalamus, Retest, mean): 14.2 mL/cm^3
- VT (Logan (t* = 60)) (Thalamus, Retest, mean): 14.3 mL/cm^3
- k3/k4 (BPND) (2TCM-c) (Thalamus, Retest, mean): 0.97
- K1 (2TCM) (Thalamus, Test, individual NHP): 0.21 ml/cm^3 /min and 0.24 ml/cm^3 /min and 0.45 ml/cm^3 /min and 0.53 ml/cm^3 /min
- K1 (2TCM-c) (Thalamus, Test, individual NHP): 0.20 ml/cm^3 /min and 0.25 ml/cm^3 /min and 0.48 ml/cm^3 /min and 0.54 ml/cm^3 /min
- K1/k2 (2TCM) (Thalamus, Test, individual NHP): 11.03 ml/cm^3 and 7.51 ml/cm^3 and 12.45 ml/cm^3 and 12.69 ml/cm^3
- K1/k2 (2TCM-c) (Thalamus, Test, individual NHP): 7.86 ml/cm^3 and 4.35 ml/cm^3 and 8.22 ml/cm^3 and 10.99 ml/cm^3
- VT (1TCM) (Thalamus, Test, individual NHP): 12.88 ml/cm^3 and 10.42 ml/cm^3 and 16.04 ml/cm^3 and 14.02 ml/cm^3
- VT (2TCM) (Thalamus, Test, individual NHP): 13.65 ml/cm^3 and 17.60 ml/cm^3
- VT (2TCM-c) (Thalamus, Test, individual NHP): 17.47 ml/cm^3 and 11.10 ml/cm^3 and 16.27 ml/cm^3 and 15.12 ml/cm^3
- VT (Logan) (Thalamus, Test, individual NHP): 14.58 ml/cm3 and 12.30 ml/cm3 and 17.00 ml/cm3 and 15.59 ml/cm3
- k3/k4 (2TCM) (Thalamus, Test, individual NHP): 0.82
- k3/k4 (2TCM-c) (Thalamus, Test, individual NHP): 1.00 and 1.56 and 1.18 and 0.38
- VT (1TCM) (Thalamus, Test, mean): 13.3 mL/cm^3
- VT (2TCM) (Thalamus, Test, mean): 15.6 mL/cm^3
- VT (2TCM-c) (Thalamus, Test, mean): 15.0 mL/cm^3
- VT (Logan (t* = 60)) (Thalamus, Test, mean): 14.9 mL/cm^3
- k3/k4 (BPND) (2TCM-c) (Thalamus, Test, mean): 1.03
- K1 (2TCM) [1]: 0.29 ml/cm^3 /min and 0.49 ml/cm^3 /min and 0.32 ml/cm^3 /min and 0.35 ml/cm^3 /min
- K1 (2TCM-c) [1]: 0.30 ml/cm^3 /min and 0.44 ml/cm^3 /min and 0.32 ml/cm^3 /min and 0.35 ml/cm^3 /min
- K1/k2 (2TCM) [1]: 1.66 ml/cm^3 and 10.04 ml/cm^3 and 11.74 ml/cm^3
- K1/k2 (2TCM-c) [1]: 7.25 ml/cm^3 and 4.64 ml/cm^3 and 9.07 ml/cm^3 and 10.70 ml/cm^3
- VT (1TCM) [1]: 10.59 ml/cm^3 and 12.63 ml/cm^3 and 13.80 ml/cm^3 and 12.91 ml/cm^3
- VT (2TCM) [1]: 10.58 ml/cm^3 and 12.82 ml/cm^3 and 14.29 ml/cm^3
- VT (2TCM-c) [1]: 10.59 ml/cm^3 and 12.79 ml/cm^3 and 18.23 ml/cm^3 and 13.35 ml/cm^3
- VT (Logan) [1]: 11.11 ml/cm3 and 12.93 ml/cm3 and 16.97 ml/cm3 and 13.41 ml/cm3
- k3/k4 (2TCM) [1]: 6.72
- k3/k4 (2TCM-c) [1]: 0.46 and 1.76 and 0.27
- K1 (2TCM) [2]: 0.17 ml/cm^3 /min and 0.19 ml/cm^3 /min and 0.41 ml/cm^3 /min
- K1 (2TCM-c) [2]: 0.17 ml/cm^3 /min and 0.20 ml/cm^3 /min and 0.42 ml/cm^3 /min
- K1/k2 (2TCM) [2]: 9.57 ml/cm^3 and 6.00 ml/cm^3 and 9.76 ml/cm^3 and 11.24 ml/cm^3
- K1/k2 (2TCM-c) [2]: 7.86 ml/cm^3 and 4.35 ml/cm^3 and 8.22 ml/cm^3 and 10.99 ml/cm^3
- VT (1TCM) [2]: 12.00 ml/cm^3 and 9.44 ml/cm^3 and 14.88 ml/cm^3 and 12.88 ml/cm^3
- VT (2TCM) [2]: 11.61 ml/cm^3 and 16.36 ml/cm^3
- VT (2TCM-c) [2]: 15.44 ml/cm^3 and 10.47 ml/cm^3 and 15.61 ml/cm^3
- VT (Logan) [2]: 14.19 ml/cm3 and 11.20 ml/cm3 and 15.99 ml/cm3 and 14.37 ml/cm3
- k3/k4 (2TCM) [2]: 0.94
- k3/k4 (2TCM-c) [2]: 1.41 and 1.09
- ICC of 2TCM-c VT (White matter): 0.43
- ICC of Logan (t* = 60) VT (White matter): 0.62
- aTRV of 2TCM-c VT (White matter): 24%
- aTRV of Logan (t* = 60) VT (White matter): 13%
- VT (1TCM) (White matter, Retest, mean): 12.5 mL/cm^3
- VT (2TCM) (White matter, Retest, mean): 12.6 mL/cm^3
- VT (2TCM-c) (White matter, Retest, mean): 13.7 mL/cm^3
- VT (Logan (t* = 60)) (White matter, Retest, mean): 13.6 mL/cm^3
- k3/k4 (BPND) (2TCM-c) (White matter, Retest, mean): 0.83
- VT (1TCM) (White matter, Test, mean): 12.3 mL/cm^3
- VT (2TCM) (White matter, Test, mean): 14.0 mL/cm^3
- VT (2TCM-c) (White matter, Test, mean): 13.8 mL/cm^3
- VT (Logan (t* = 60)) (White matter, Test, mean): 13.9 mL/cm^3
- k3/k4 (BPND) (2TCM-c) (White matter, Test, mean): 1.25
- BPND lower compared to [^11C]UCB-J and other [^18F]-labelled SV2A radioligands (cynomolgus NHP): 3 to fourfold lower
- VT lower compared to [^11C]UCB-J and other [^18F]-labelled SV2A radioligands (cynomolgus NHP): ~ 50%
- free fraction in tissue fND (cynomolgus monkey, in vivo): 6.1 ± 1.3% and ~ 6%
- tissue influx parameter K1 (grey matter regions, 2TCM and 2TCM-c): 0.37 ± 0.01 mL/cm^3/min
- average VND (K1/k2 from 2TCM-c) (over all VOIs and animals): 7.89 ± 1.23 mL/cm^3

Reference: PMC8026785, “The pharmacokinetics of [^18F]UCB-H revisited in the healthy non-human primate brain” (EJNMMI Research, 2021)
